Calls of active or inactive are those of the source. Cut-off read from the data, not from the text of the source, for most assays here: actives have a measured Kd and inactives only a lower limit. A value given as a limit tells only on which side of the number the result lay.

For six compounds, Kd results are on record in ChEMBL document CHEMBL3991601, “The target landscape of clinical kinase drugs” (Science, 2017).

For assay [1], the target named is Serine/threonine-protein kinase SIK2 (Homo sapiens, UniProt Q9H0K1).
Sequence of Serine/threonine-protein kinase SIK2 (Q9H0K1 whole entry): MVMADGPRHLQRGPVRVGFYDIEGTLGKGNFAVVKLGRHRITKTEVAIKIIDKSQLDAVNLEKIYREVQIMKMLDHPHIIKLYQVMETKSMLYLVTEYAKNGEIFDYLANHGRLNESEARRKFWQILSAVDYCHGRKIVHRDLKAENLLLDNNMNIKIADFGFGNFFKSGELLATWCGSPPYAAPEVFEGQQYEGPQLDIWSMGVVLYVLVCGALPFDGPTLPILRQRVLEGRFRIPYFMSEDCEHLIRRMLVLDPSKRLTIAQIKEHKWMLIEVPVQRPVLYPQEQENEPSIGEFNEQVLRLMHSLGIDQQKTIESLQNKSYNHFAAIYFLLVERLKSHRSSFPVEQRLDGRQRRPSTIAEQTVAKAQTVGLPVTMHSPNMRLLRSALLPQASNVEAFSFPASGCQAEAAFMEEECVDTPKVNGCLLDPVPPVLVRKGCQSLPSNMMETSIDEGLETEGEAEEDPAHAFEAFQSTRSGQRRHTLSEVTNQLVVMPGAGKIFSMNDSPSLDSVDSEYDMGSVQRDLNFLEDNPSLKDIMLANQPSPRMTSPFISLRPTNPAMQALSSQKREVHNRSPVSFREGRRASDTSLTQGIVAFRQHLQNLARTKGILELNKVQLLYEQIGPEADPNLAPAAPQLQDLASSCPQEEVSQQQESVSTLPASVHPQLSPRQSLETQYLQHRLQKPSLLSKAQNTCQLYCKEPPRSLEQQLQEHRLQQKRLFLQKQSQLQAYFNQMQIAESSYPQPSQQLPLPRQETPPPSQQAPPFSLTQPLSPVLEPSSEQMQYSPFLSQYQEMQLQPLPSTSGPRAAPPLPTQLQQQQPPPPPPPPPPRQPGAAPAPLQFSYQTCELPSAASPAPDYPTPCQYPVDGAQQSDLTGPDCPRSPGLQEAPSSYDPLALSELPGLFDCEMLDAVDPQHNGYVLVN
Another assay addresses T1, ADP/ATP translocase 3 (Homo sapiens, UniProt P12236).
T1 sequence (P12236 whole entry): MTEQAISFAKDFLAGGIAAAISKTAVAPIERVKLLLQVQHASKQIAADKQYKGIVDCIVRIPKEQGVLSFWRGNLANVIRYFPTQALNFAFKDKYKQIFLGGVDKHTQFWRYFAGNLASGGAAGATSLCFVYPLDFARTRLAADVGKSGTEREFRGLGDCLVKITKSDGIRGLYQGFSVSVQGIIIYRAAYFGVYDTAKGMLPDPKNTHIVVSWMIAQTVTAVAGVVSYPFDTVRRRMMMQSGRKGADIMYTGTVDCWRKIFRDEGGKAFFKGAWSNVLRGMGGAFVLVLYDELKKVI

Assay [2] deals with Cyclin-dependent kinase 6 (Homo sapiens, UniProt Q00534).
Sequence of Cyclin-dependent kinase 6 (Q00534 whole entry): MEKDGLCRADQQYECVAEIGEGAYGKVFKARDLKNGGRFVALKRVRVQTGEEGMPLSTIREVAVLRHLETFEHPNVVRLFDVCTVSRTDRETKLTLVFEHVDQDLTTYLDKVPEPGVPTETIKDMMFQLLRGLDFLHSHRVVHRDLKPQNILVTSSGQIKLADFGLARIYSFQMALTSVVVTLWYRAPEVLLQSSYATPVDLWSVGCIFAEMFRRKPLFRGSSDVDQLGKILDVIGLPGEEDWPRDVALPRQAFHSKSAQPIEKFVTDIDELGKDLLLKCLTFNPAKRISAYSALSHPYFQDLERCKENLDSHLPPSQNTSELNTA
In assay [3] the target is T2, Serine/threonine-protein kinase Nek9 (Homo sapiens, UniProt Q8TD19).
T2 sequence (Q8TD19 whole entry): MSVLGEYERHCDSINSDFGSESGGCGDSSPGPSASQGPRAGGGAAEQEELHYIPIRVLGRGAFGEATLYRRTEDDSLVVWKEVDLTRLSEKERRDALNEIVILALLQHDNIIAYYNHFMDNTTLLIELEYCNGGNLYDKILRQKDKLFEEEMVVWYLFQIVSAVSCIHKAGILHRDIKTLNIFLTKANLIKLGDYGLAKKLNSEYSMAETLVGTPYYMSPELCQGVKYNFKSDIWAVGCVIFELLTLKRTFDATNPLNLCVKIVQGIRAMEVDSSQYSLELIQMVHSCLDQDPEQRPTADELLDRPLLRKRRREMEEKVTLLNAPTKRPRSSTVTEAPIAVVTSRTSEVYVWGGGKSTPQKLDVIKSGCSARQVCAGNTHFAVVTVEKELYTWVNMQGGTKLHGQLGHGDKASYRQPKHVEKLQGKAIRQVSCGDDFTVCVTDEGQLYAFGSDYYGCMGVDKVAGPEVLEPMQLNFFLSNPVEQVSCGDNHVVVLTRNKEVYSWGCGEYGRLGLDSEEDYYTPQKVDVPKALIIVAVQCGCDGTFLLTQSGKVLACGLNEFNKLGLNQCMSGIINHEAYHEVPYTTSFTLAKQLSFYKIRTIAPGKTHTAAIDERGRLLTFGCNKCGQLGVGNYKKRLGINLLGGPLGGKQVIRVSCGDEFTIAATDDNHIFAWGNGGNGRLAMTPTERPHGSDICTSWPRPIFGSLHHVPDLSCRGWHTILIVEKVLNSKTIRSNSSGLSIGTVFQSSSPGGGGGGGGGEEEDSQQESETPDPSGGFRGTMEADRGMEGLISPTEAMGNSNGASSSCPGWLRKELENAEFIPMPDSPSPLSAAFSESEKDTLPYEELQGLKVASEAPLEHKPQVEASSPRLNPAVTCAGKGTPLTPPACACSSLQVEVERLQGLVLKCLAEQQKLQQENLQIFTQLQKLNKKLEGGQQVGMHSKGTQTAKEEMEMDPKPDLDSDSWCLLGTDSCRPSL

For assay [4], the target named is Tyrosine-protein kinase JAK1 (Homo sapiens, UniProt P23458).
Sequence of Tyrosine-protein kinase JAK1 (P23458 whole entry): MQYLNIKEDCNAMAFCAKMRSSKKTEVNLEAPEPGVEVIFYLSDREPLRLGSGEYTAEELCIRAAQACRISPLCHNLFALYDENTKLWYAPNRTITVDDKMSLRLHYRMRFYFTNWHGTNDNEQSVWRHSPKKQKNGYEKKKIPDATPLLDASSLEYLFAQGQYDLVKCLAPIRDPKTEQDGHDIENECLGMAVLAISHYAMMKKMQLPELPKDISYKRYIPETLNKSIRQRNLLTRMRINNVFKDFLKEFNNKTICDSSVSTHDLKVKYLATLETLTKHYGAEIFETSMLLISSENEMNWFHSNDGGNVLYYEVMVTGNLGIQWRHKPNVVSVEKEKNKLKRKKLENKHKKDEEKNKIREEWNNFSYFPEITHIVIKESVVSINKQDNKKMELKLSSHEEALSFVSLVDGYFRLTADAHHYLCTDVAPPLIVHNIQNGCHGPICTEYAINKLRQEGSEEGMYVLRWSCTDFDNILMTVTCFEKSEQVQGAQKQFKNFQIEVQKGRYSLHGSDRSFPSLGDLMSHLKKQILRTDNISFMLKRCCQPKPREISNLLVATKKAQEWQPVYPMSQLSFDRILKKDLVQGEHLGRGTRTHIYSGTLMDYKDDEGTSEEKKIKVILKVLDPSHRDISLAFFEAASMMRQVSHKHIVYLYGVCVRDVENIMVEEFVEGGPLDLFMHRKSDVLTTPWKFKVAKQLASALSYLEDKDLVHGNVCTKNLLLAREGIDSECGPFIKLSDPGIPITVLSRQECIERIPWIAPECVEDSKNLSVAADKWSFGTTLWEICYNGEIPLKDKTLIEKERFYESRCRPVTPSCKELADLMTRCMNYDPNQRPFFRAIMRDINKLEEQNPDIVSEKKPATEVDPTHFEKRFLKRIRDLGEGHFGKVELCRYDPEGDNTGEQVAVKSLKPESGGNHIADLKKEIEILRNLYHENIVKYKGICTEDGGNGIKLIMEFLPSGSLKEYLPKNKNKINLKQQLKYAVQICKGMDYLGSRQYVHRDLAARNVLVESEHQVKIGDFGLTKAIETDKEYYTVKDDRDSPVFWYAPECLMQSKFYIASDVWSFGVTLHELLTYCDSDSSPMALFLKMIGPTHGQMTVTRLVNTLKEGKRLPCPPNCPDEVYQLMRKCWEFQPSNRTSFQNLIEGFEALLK
Assay [5] deals with T3, Ras-related protein Rab-10 (Homo sapiens, UniProt P61026).
T3 sequence (P61026 whole entry): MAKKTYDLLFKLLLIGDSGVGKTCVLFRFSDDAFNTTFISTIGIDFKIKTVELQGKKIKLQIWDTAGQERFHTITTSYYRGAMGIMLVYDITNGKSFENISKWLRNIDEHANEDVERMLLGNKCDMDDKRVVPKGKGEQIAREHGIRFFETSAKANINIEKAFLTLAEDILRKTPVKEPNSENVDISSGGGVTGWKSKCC

Assay [6] deals with T4, Serine/threonine-protein kinase D2 (Homo sapiens, UniProt Q9BZL6).
T4 sequence (Q9BZL6 whole entry): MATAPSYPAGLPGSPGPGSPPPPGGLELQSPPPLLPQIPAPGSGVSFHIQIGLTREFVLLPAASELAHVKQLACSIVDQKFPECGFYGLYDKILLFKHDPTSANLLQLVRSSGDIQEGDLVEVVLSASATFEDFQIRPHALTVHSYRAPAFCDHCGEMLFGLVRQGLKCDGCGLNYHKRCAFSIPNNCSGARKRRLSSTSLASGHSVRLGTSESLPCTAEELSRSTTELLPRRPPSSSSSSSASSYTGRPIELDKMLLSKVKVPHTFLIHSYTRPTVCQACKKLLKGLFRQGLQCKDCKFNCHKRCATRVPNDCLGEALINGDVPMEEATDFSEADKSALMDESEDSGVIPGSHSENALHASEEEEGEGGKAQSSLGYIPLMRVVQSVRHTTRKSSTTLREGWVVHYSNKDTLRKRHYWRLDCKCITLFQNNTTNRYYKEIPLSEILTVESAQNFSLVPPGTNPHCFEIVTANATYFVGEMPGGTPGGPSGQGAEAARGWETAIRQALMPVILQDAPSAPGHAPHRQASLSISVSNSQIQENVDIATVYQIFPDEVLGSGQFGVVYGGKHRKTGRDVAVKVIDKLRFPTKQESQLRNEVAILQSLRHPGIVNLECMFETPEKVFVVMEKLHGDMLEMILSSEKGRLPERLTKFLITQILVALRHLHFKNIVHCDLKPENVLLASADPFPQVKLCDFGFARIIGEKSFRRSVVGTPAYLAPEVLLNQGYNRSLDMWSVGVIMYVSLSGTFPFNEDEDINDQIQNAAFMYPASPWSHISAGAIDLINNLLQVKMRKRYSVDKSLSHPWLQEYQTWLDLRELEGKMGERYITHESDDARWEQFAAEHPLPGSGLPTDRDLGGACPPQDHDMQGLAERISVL

The next assay deals with Ephrin type-A receptor 5 (Homo sapiens, UniProt P54756).
Sequence of Ephrin type-A receptor 5 (P54756 whole entry): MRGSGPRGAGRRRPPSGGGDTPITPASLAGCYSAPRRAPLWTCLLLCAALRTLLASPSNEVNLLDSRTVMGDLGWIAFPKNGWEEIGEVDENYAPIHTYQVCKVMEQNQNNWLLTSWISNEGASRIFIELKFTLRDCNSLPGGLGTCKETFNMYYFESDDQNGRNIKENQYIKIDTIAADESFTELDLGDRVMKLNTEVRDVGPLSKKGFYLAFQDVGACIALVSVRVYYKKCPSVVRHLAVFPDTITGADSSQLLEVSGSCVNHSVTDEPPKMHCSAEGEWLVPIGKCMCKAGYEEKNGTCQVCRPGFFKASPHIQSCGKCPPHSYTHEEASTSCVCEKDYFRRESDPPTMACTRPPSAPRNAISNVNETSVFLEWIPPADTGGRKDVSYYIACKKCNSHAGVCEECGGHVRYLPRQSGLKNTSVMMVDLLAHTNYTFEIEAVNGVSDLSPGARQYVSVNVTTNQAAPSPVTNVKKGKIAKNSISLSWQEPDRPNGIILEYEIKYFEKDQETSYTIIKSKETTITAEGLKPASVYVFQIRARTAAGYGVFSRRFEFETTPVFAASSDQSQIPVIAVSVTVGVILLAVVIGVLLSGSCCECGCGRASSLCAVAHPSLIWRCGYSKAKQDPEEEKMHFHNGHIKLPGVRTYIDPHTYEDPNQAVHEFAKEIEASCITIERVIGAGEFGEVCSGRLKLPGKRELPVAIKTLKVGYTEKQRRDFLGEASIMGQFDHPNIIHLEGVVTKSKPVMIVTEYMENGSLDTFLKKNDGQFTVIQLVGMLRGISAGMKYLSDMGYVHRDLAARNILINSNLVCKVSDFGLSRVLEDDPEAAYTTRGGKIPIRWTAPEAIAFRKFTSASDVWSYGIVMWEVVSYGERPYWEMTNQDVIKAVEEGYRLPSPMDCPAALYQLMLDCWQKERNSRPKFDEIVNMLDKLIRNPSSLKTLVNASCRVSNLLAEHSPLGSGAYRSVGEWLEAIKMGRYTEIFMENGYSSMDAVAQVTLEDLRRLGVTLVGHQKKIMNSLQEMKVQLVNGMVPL
In the next assay the target is T5, Heme oxygenase 2 (Homo sapiens, UniProt P30519).
T5 sequence (P30519 whole entry): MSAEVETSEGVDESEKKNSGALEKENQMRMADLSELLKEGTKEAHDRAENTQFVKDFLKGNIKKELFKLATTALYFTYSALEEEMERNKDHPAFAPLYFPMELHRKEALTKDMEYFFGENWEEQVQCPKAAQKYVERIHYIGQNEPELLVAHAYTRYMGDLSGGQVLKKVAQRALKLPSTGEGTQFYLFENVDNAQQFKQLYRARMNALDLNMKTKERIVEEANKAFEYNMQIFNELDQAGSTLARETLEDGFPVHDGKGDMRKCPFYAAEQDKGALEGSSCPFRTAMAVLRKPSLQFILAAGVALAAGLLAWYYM

The next assay concerns the target TGF-beta receptor type-2 (Homo sapiens, UniProt P37173).
Note: in the data inactive means no Kd found up to 30 µM.

Sequence of TGF-beta receptor type-2 (P37173 whole entry): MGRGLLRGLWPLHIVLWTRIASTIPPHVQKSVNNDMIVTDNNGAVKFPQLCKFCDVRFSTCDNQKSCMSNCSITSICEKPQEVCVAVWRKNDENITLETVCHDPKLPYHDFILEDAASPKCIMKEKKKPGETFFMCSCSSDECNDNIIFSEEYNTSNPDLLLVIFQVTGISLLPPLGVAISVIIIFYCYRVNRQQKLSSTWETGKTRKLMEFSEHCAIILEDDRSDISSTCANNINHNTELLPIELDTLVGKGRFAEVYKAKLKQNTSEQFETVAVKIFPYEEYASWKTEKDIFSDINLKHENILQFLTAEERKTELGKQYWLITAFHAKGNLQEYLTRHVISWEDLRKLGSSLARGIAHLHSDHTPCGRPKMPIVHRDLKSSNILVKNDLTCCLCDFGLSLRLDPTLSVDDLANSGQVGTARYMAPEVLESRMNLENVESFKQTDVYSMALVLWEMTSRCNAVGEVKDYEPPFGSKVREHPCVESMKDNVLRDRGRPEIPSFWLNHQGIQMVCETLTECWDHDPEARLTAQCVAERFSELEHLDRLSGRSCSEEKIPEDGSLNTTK

As to `O=S(=O)(c1cccc2c(O)nccc12)N1CCCNCC1` [HYDROXYFASUDIL], the Kd (in assay [1]; at ADP/ATP translocase 3; in assay [2]; in [3]; in assay [4]; in assay [5]) was > 30 µM (inactive) throughout. Further, the Kd is 2.54 µM (active) in assay [6], > 30 µM (inactive) on Ephrin type-A receptor 5, > 30 µM (inactive) on Heme oxygenase 2 and > 30 µM (inactive) on TGF-beta receptor type-2.
For `O=C(O)c1ccc2c(c1)nc(Nc1cccc(Cl)c1)c1ccncc12` [SILMITASERTIB], the Kd (in assay [1]; on ADP/ATP translocase 3; in [2]; in [3]; in assay [4]; in [5]) was > 30 µM (inactive) in each case. Further, the Kd (in assay [6]; at Ephrin type-A receptor 5; on Heme oxygenase 2; on TGF-beta receptor type-2) was > 30 µM (inactive) each time.
Regarding `CCc1nc(C(N)=O)c(Nc2ccc(N3CCC(N4CCN(C)CC4)CC3)c(OC)c2)nc1NC1CCOCC1` [GILTERITINIB], the Kd in assay [1] is > 30 µM (inactive); on ADP/ATP translocase 3 it was 0.495 µM; in assay [2], > 30 µM (inactive); in [3], > 30 µM (inactive); in assay [4] it was > 30 µM (inactive); in assay [5], > 30 µM (inactive). Moreover, the Kd (in assay [6]; at Ephrin type-A receptor 5; on Heme oxygenase 2; at TGF-beta receptor type-2) was > 30 µM (inactive) in each case.
As for `Cc1c(NC(=O)OC[C@@H]2COCCN2)cn2ncnc(Nc3ccc4c(cnn4Cc4cccc(F)c4)c3)c12` [AC-480], the Kd (in assay [1]; at ADP/ATP translocase 3; in assay [2]; in assay [3]; in assay [4]; in assay [5]) was > 30 µM (inactive) each time. For the same compound, the Kd (in assay [6]; on Ephrin type-A receptor 5; at Heme oxygenase 2; at TGF-beta receptor type-2) was > 30 µM (inactive) in each case.
As for `O[C@H]1CC[C@H](Nc2ncc3nc(Nc4c(F)cc(F)cc4F)n([C@H]4CCOC4)c3n2)CC1` [TANZISERTIB], the Kd (in assay [1]; on ADP/ATP translocase 3; in assay [2]; in assay [3]; in [4]; in assay [5]) was > 30 µM (inactive) throughout. Moreover, the Kd (in assay [6]; at Ephrin type-A receptor 5; at Heme oxygenase 2; at TGF-beta receptor type-2) was > 30 µM (inactive) in each case.
As for `Cn1c(=O)n(-c2ccc(C(C)(C)C#N)cc2)c2c3cc(-c4cnc5ccccc5c4)ccc3ncc21` [DACTOLISIB], the Kd (in [1]; at ADP/ATP translocase 3; in assay [2]; in assay [3]; in [4]; in assay [5]) was > 30 µM (inactive) throughout. Also, the Kd (in assay [6]; at Ephrin type-A receptor 5; on Heme oxygenase 2; on TGF-beta receptor type-2) was > 30 µM (inactive) in each case.
